Test results from patent US7271158B2, “Treatment of rumen acidosis with α-amylase inhibitors” (Pfizer Inc., priority 2000, dated 2007).
pIC50: −log10 of the molar value.

Legend:
[1] = biological target: rumen fluid supernatant amylases; assay: Rumen bacterial amylase assay, protocol 1 (Sigma amylase kit 577); format: biochemical, rumen bacteria, Hereford×Friesian calves; conditions: rumen fluid amylase screen using Sigma kit 577
Source text: Rumen Bacterial Amylase Assay—Protocol 1
The enzymatic reactions involved in the assay are as follows:
5 ET-G7PNP→(α-amylase)→2 ET-G5+2 G2PNP+2 ET-G4+2 G3PNP+ET-G3+G4-PNP2 G2PNP+2 G3 PNP→(α-glucosidase)→4 PNP +10 glucose
α-Amylase hydrolyses 4,6-ethylidene-G7-PNP (ET-G7 PNP) to G2, G3 and G4 PNP fragments. α-Glucosidase (α-1,4-glucan glucohydrolase EC 3.2.1.3) hydrolyses G2PNP and G3PNP to yield p-nitrophenol and glucose. Five moles of substrate (ET-G7PNP) is hydrolysed to yield 4 moles of p-nitrophenol p-Nitrophenol absorbs light as 405 nm, and following a two minute lag period the rate of increase in absorbance at 405 nm is directly proportional to α-amylase activity in the well.
Rumen fluid was collected from 4-month-old Hereford×Friesian calves (125–135 kg, supplied by Cwmnant Calves Ltd. Cwmnant. Tregaron. Ceredigion) fed on diet GH 313. The rumen fluid was collected from slaughtered calves into pre-warmed vacuum flasks, as soon as possible after euthanasia. It was then filtered through a double layer of absorbent gauze (Absorbent gauze BP, GAUZ 4 from Robert Bailey plc, Stockport) to remove hay and feed particles. The liquid was centrifuged at a relative centrifugal force of 23,300 for 60 minutes, and the supernatant decanted, avoiding contamination from the loose top layer of the pellet by careful pouring. The supernatant was then aliquoted into 50 ml plastic tubes and frozen at […]. When required for use in an assay the rumen fluid supernatant was thawed by standing the tubes in cold water. Test compounds or controls were dispensed into the 96-well assay plate at 4 μl/well. 100 μl per well of Sigma amylase reagent 577 (made up to half the volume described in the instructions (i.e. 10 ml for a 577-20 vial)) was then added to each well, followed by 100 μl per well of rumen fluid supernatant. A T=0 reading at 405 nm was taken at this stage using an Anthos plate reader. The plate was then incubated at room temperature or 37° C. until an optical density window of approximately 1.000U was seen (typically one hour at 37° C. or three hours at room temperature). A second reading was taken at 405 nm, and the first reading subtracted from it. Active compounds cause a reduction in the optical density readings when compared to the control without the agent being tested.

[2] = tested on: strained rumen liquor; assay: In vitro rumen propionic acid screen; format: cell-based, Guernsey cow; conditions: control normalised as 100%; for Total VFA: 6 h incubation; for % Propionate: molar proportion of propionic acid in total VFA
Experimental: In Vitro Rumen Propionic Acid Screen Rumen Fluid: An eight year old dry Guernsey cow, fitted with a rumen fistula (Bar Diamond Inc. P.O. Box. 60. Bar Diamond Lane. Parma. Id. 83660-0060. […] This animal was used as a source of rumen contents, which were taken at 08:00 h (before the morning feed). The material was carried to the laboratory in a pre-warmed insulated flask, and then strained through four layers of cotton gauze into another pre-warmed bottle, which was stored in an incubator at 40° C. until the fluid was dispensed into the assay tubes. Substrate Mixture: • 68 g corn starch. Ex Sigma Cat. S-4126. • 17 g α-cellulose. Ex Sigma Cat. C-6429. • 15 g Type 1 soya flour. Ex Sigma Cat. S-9633. • Mix well. The assay was conducted in 16 ml Sorvall centrifuge tubes A tablet containing 100 mg of acarbose was placed in 10 ml of buffer and shaken until the tablet was completely disrupted, giving a 10 mg/ml solution of acarbose. […] Control tubes were prepared by replacing the acarbose solution with buffer. One ml of substrate suspension was added to all the assay tubes, followed by 3 ml of warmed degassed buffer and then by 5 ml of strained rumen liquor. Suba-Seal stoppers (No. 29) were fitted, and the head pressure in the tubes reduced by passing a hypodermic needle attached to a vacuum line through the stopper until the tube contents frothed. The tubes were then placed in a 40° C. incubator for 6 hours and shaken hourly. Pre-incubation VFA concentration were determined by preparing three tubes as for incubation but 1 ml metaphosphoric/crotonic acids solution was added immediately following the rumen liquor. These tubes were stored at 4° C. and processed with the post-incubation tubes. The incubation was terminated after 6 h by removing the stoppers and adding 1 ml of metaphosphoric/crotonic acids solution. The tubes were then centrifuged for 8 minutes at 18,000 g at 4° C., and an aliquot of the supernatant stored in an automatic liquid sampler vial until required for VFA analysis by gas chromatography. (as described in […] protocol) Production of total VFA and propionate during the incubation was determined as follows. Firstly, first the pre-incubation concentrations of total VFA and propionic acid were calculated as the mean of the analyses of the pre-incubation samples. Then for each incubated sample, post-minus pre-incubation concentration gave production during incubation. The molar proportion of propionic acid in total VFA.produced during the incubation was also calculated. The total VFA and % propionic acid values were meaned for the replicate tubes, and the mean control total VFA and % propionic acid values normalised as 100%, then the change caused by the test treatments expressed relative to this value.

With `CC1OC(OC2C(CO)OC(OC3C(CO)OC(O)C(O)C3O)C(O)C2O)C(O)C(O)C1NC1C=C(CO)C(O)C(O)C1O` (stereo not shown) [Acarbose, acarbose] the pIC50 [1] was 5.69, the “Total VFA” value ([2]; dose 0.32 μg/ml) was 96% and the “% Propionate” value ([2]; dose 0.32 μg/ml) was 97%. For the same compound, the “Total VFA” value ([2]; dose 1.6 μg/ml) was 92%, the “% Propionate” value ([2]; dose 1.6 μg/ml) was 94% and the “Total VFA” value ([2]; dose 8 μg/ml) was 72%. The “% Propionate” value ([2]; dose 8 μg/ml) was 74%, the “Total VFA” value ([2]; dose 40 μg/ml) was 63% and the “% Propionate” value ([2]; dose 40 μg/ml) was 74%. The “Total VFA” value ([2]; dose 200 μg/ml) was 58%, the “% Propionate” value ([2]; dose 200 μg/ml) was 81% and the “Total VFA” value ([2]; dose 1000 μg/ml) was 50%. For the same compound, the “% Propionate” value ([2]; dose 1000 μg/ml) was 88%.
